According to publication PMC10657973 (Journal of Pharmaceutical Analysis, 2023):
“Also recorded” adds a separate entry of the source.

What was measured:
[1] = system: serum protein; assay: Protein-binding ratio of UTs in rat serum; type: in vitro ADME, rats; conditions: ultrafiltration at 37 °C
[2] = system: rMRP4; type: in vivo, rats; conditions: rat, in vivo
[3] = target: T1, OAT1 (Homo sapiens, UniProt Q4U2R8); assay: Transport kinetics of UTs in HEK293T-OAT1 cells; type: cell-based; conditions: HEK293T-OAT1/3 cells, 100 μM
T1 sequence (Q4U2R8 1-563): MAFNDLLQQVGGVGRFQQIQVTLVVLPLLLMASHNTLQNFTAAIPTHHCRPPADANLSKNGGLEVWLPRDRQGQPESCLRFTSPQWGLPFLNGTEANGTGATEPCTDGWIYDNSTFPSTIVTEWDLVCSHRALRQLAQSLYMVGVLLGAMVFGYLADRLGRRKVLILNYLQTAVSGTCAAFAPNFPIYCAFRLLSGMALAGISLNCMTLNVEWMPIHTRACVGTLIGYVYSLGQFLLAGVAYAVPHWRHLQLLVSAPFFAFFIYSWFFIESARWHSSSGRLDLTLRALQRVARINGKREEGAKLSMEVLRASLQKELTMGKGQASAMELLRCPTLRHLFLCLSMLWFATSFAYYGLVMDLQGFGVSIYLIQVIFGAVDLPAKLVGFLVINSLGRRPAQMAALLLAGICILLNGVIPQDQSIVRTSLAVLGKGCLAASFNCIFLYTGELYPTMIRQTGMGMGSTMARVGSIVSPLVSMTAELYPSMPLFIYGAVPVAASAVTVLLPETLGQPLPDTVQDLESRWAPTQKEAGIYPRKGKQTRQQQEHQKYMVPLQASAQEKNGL

[4] = system: rOAT1/3; assay: rOAT1/3−/− rat experiment; type: in vivo, rats; conditions: rat, in vivo
[5] = system: rMRP4; type: in vivo, rats
[6] = system: OAT1/3 and MRP4 double-transfected MDCK cells
[7] = target: T2, OAT3 (Homo sapiens, UniProt Q8TCC7); assay: Uptake of UTs in HEK293T-OAT3 cells; type: cell-based; conditions: 100 μM, 30 min
T2 sequence (Q8TCC7 1-542): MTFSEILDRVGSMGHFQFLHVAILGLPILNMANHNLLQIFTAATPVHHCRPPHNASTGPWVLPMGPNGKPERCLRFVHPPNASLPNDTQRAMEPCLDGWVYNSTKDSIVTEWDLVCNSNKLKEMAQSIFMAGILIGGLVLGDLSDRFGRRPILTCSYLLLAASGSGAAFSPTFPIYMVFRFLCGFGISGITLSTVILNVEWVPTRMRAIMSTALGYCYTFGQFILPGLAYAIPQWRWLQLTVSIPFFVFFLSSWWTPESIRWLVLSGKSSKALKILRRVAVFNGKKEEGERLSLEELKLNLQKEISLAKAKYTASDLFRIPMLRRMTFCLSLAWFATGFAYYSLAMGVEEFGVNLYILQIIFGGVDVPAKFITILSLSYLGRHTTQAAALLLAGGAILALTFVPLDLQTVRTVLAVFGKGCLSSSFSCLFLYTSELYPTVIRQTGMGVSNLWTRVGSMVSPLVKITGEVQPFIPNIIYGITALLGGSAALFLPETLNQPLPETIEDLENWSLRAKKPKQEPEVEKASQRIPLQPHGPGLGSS

[8] = type: in vivo, rats; conditions: rats
[9] = system: MRP4; assay: Intracellular accumulation of UTs in MRP4-overexpressing cells; type: cell-based, human; conditions: 100 μM, 30 min
[10] = system: OAT4; assay: Specificity: uptake in OAT4-overexpressing cells; type: cell-based
[11] = target: T1, OAT1; assay: Uptake of UTs in HEK293T-OAT1 cells; type: cell-based; conditions: 100 μM, 30 min
[12] = system: rOATs; assay: rOATs inhibition experiment
[13] = system: OAT1/3-MRP4 double-transfected MDCK cells; assay: Transcellular transport in OAT1/3-MRP4 double-transfected MDCK cells; type: cell-based
[14] = substrate: O=C(O)c1cc(=O)c2ccccc2[nH]1; assay: Transport kinetics of UTs in HEK293T-OAT1 cells; type: cell-based, human; conditions: other: HEK293T-OAT1, Michaelis-Menten
[15] = substrate: CCCc1oc(CCC(=O)O)c(C(=O)O)c1C; assay: Transport kinetics of UTs in HEK293T-OAT1 cells; type: cell-based, human; conditions: other: HEK293T-OAT1, Michaelis-Menten
[16] = PROB 30, 60, 120 mg/kg oral, 7 days

With `CCCc1oc(CCC(=O)O)c(C(=O)O)c1C` [CMPF, 3-carboxy-4-methyl-5-propyl-2-furanpropanoic acid] the “Protein-binding ratio, Normal rats in vivo (%) (n = 6)” value [1] was over 90%, the “renal clearance rate in rMRP4−/− rats vs WT” value [2] was “did not change significantly” and the “renal tissue concentration in rMRP4−/− rats vs WT” value [2] was “significantly elevated”. The “serum levels in rMRP4−/− rats vs WT” value [2] was “did not change significantly”, the linear uptake time [3] was 0 to 10 min and the “renal clearance rate in rOAT1/3−/− rats vs WT” value [4] was “significantly decreased”. For the same molecule, the “renal tissue uptake ratio in rOAT1/3−/− rats vs WT” value [4] was “significantly decreased”, the “serum levels in rOAT1/3−/− rats vs WT” value [4] was “significantly increased” and the “levels in renal tissues in rats treated with MK-571 vs control” value ([5]; MK-571 5, 10, 20 mg/kg oral, 7 days) was “significantly increased”. The “cumulative urinary excretion in rats treated with MK-571 vs control” value ([5]; MK-571 (CMPF effect at 20 mg/kg)) was “significantly decreased”, the “uptake at 4 °C in OAT1/3 and MRP4 double-transfected cells” value ([6]; 4 °C) was “no significant difference” and the “uptake at 37 °C in OAT1-MRP4 cells vs double control cells” value ([6]; 37 °C) was “significantly increased”. The “uptake at 37 °C in OAT3-MRP4 cells vs double control cells” value ([6]; 37 °C) was “significantly increased”, the “uptake at 4 °C in OAT3-overexpressing cells vs control” value ([7]; 4 °C) was “not significantly different” and the “uptake of HSA-bound UT in OAT3-overexpressing cells vs control cells” value ([7]; 37 °C, with HSA) was “dramatically increased”. For the same molecule, the “uptake of free UT in OAT3-overexpressing cells vs control cells” value ([7]; 37 °C, without HSA) was “dramatically increased; also recorded: markedly higher”, the “renal excretion with MK-571 vs control” value ([8]; MK-571 20 mg/kg) was “did not affect” and the “renal excretion with PROB vs control” value ([8]; PROB 60 mg/kg) was “did not affect”. For the same molecule, the “uptake at 4 °C in MRP4-overexpressing cells vs control” value ([9]; 4 °C) was “not significantly different”, the “intracellular accumulation in MRP4-overexpressing cells vs control cells” value ([9]; 37 °C, 4 mM ATP) was “significantly decreased” and the “transport mediated by OAT4 / uptake in OAT4-overexpressing cells vs control” value [10] was “significantly higher”. For the same molecule, the “uptake at 4 °C in OAT1-overexpressing cells vs control” value ([11]; 4 °C) was “not significantly different”, the “uptake of HSA-bound UT in OAT1-overexpressing cells vs control cells” value ([11]; 37 °C, with HSA) was “dramatically increased” and the “uptake of free UT in OAT1-overexpressing cells vs control cells” value ([11]; 37 °C, without HSA) was “dramatically increased; also recorded: markedly higher”. The “cumulative urinary excretion in rats treated with PROB vs control” value ([12]; 12 h urine) was “no significant effects”, the “renal uptake ratios in rats treated with PROB vs control” value [12, 16] was “decreased” and the “serum levels in rats treated with PROB vs control” value [12, 16] was “increased”.

With `CN(C)C(=O)CCSC(SCCC(=O)O)c1cccc(/C=C/c2ccc3ccc(Cl)cc3n2)c1` (stereo not shown) [MK-571, reference compound] the “effect on B to A transmembrane transport of CMPF” value [13] was “substantially inhibited”, the “effect on B−A transport of kynurenic acid” value [13] was “significantly reduced” and the “serum creatinine and urea nitrogen levels” value ([5]; rats, 20 mg/kg oral, 7 days) was “significantly increased”. The “pathological changes in the kidneys” value ([5]; rats, different doses, H&E staining) was “No significant pathological changes”.

B1: OAT1 (Homo sapiens) (protein)
chain: MAFNDLLQQVGGVGRFQQIQVTLVVLPLLLMASHNTLQNFTAAIPTHHCRPPADANLSKNGGLEVWLPRDRQGQPESCLRFTSPQWGLPFLNGTEANGTGATEPCTDGWIYDNSTFPSTIVTEWDLVCSHRALRQLAQSLYMVGVLLGAMVFGYLADRLGRRKVLILNYLQTAVSGTCAAFAPNFPIYCAFRLLSGMALAGISLNCMTLNVEWMPIHTRACVGTLIGYVYSLGQFLLAGVAYAVPHWRHLQLLVSAPFFAFFIYSWFFIESARWHSSSGRLDLTLRALQRVARINGKREEGAKLSMEVLRASLQKELTMGKGQASAMELLRCPTLRHLFLCLSMLWFATSFAYYGLVMDLQGFGVSIYLIQVIFGAVDLPAKLVGFLVINSLGRRPAQMAALLLAGICILLNGVIPQDQSIVRTSLAVLGKGCLAASFNCIFLYTGELYPTMIRQTGMGMGSTMARVGSIVSPLVSMTAELYPSMPLFIYGAVPVAASAVTVLLPETLGQPLPDTVQDLESRWAPTQKEAGIYPRKGKQTRQQQEHQKYMVPLQASAQEKNGL
For B1, the Km [14] was 496.7 µM, the Km [15] was 1,483 μM and the Vmax [15] was 323 pmol/mg protein/min.
